Where two headings read alike, the source gives them in different places. Square brackets hold non-standard residues; d marks the D form. Peptide text beside a SMILES is read from it. * marks the point of attachment. OAll = C=CCO*
Key:
[1] = target: T1, KDR receptor (VEGFR2) (Homo sapiens, UniProt P35968); experiment: Inhibition of 125I-VEGF binding to KDR receptor on CHOm VEGFR2 cells; conditions: for inhibiting binding of VEGF to the KDR receptor (in words): 125I-VEGF
T1 construct: expressed in transfected cells; host or cells: heparan sulfate deficient Chinese hamster ovary cells (CHOm VEGFR2), VEGFR2 cDNA in psV-7d vector
T1 sequence (P35968 20-1356, species assumed): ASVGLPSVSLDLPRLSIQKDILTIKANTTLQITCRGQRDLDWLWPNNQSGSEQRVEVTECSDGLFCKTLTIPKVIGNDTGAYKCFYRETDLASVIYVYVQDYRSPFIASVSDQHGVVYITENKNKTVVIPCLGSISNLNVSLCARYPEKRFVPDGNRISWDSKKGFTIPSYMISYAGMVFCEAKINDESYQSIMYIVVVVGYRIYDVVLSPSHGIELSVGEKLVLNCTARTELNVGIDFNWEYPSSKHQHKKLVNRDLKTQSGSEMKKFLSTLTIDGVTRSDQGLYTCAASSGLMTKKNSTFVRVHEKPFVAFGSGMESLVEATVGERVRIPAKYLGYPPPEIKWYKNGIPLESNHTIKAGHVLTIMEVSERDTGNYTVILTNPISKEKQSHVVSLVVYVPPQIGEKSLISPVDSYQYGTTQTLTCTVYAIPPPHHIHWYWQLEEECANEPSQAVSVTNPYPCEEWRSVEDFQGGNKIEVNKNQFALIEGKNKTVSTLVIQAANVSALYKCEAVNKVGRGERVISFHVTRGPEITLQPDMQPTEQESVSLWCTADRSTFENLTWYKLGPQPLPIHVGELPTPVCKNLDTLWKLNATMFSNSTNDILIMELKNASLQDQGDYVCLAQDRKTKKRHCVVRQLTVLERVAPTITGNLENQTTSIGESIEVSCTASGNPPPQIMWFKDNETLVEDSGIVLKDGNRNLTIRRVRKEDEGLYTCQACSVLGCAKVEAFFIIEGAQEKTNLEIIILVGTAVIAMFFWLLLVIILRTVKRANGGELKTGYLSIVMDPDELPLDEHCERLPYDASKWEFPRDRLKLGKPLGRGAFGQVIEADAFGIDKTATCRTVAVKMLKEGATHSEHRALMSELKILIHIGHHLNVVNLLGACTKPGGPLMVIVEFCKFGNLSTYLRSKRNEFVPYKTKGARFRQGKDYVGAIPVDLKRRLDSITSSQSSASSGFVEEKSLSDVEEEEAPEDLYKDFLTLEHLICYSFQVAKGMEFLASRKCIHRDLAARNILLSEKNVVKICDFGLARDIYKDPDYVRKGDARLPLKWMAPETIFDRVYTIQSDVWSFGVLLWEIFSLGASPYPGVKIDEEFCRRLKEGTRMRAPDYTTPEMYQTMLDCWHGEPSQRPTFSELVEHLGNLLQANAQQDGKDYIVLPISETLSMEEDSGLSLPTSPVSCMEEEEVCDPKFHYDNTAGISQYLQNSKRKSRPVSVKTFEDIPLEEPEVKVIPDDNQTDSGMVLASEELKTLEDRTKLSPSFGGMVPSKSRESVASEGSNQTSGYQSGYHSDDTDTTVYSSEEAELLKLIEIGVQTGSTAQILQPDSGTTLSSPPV
Protocol: The P1 to P24 peptides are tested as concerns their property of inhibition of the binding of VEGF to its KDR receptor.
For these tests, heparin sulfate deficient Chinese hamster ovarian cells that are transfected with an expression vector containing VEGFR2cDnA (CHOm VEGFR2 cells) are used.
The CHOm VEGFR2 cells are routinely cultured in Dulbecco modified Eagle medium and supplemented with 10% (v/v) fetal calf serum (FCS), 50 U/ml penicillin, 50 μg/ml streptomycin, 1 mg/ml glucose and 2 mM L-glutamine at 37° C. in a 5% CO2 atmosphere.
The subconfluent flasks are transferred at 4° C. […] At the end of the incubation period, the cells are washed 3 times using iced PBS and solubized in 1 mL of buffer with 2% Triton X 100, 10% glycol, 1 mg/mL bovine serum albumin BSA. The radioactivity rate bound to the cells is counted in an MR-250 Kontron gamma counter. […] Specific binding is calculated by subtracting non-specific binding from total binding.
These assays are continued using the cyclopeptides of interest and two linear peptides as controls for an inhibition analysis as a function of dose.

[2] = test system: endothelial cells; experiment: VEGF-stimulated endothelial cell migration (monolayer denudation); format: cell-based; conditions: 10 ng/mL VEGF
Protocol: Cellular migration is measured according to the method described by Sato and Rifkin (J. Cell Biol., September, 1988, (107 (3): 1199–205) [17] with modifications. 100,000 endothelial cells are placed in 35 mm culture flasks in DMEM medium containing 10% fetal calf serum. On confluence, the medium is replaced by DMEM medium without serum and the cells are incubated overnight. On the next day, denudation is done artificially in the monolayer using a sterile pipette tip. A series of digital photographs is taken and the border of denudation is marked by a line using the BiocomVisionLab2000 program. The flasks are then rinsed and incubated with 10 ng/mL VEGF in the presence or absence of peptide. After 18 hours of incubation a new series of photographs is taken and the before and after stimulation images are superimposed. The cells situated beyond the border of denudation are counted.

[3] = test system: ERK2 (p42); experiment: VEGF-induced phosphorylation of ERK2 (p42), Western blot, capillary endothelial cells; format: cell-based; conditions: p42 and p44 together, 10 ng/mL of VEGF
Protocol: Phosphorylation of ERK1 (p44) and ERK2 (p42) is measured by Western blot using anti p42/p44 antibodies (New England Biolabs). The capillary endothelial cells are cultivated in DMEM containing 10% newborn bovine serum. Subconfluent cultures are then deprived of serum over a period of 24 hours. The peptides are then added at specific concentrations over 5 minutes to the cells in the presence or absence of 10 ng/mL of VEGF. The cells are then removed from the culture flasks and lysed for 20 minutes over ice in lysis buffer containing […], pH 7.4, 75 mM NaCl, 1 mM EDTA, 1% Nonidet P-40 and 0.01% of SDS. The insoluble material is removed by centrifugation and 50 μg/mL of protein extract are separated by polyacrylamide gel electrophoresis containing sodium dodecyl sulfate (SDS) under denaturing conditions. The proteins are then transferred from the gel onto a nitrocellulose membrane (Amersham Pharmacia Biotech, Orsay) using a transfer apparatus (semi-dry transfer, Bio-Rad, Irvy-sur-Seine, France). […] The results are quantified using the Image Quant program (Molecular Dynamics).
The assays were done as indicated. […] The degree of phosphorylation is estimated after quantification of the signals obtained using autoradiographic films and the results are expressed in percent inhibition relative to the signal obtained using 10 ng/mL of VEGF alone.

[4] = test system: endothelial cells; experiment: VEGF-stimulated endothelial cell proliferation (cell count); format: cell-based; conditions: 10 ng/mL of VEGF
Protocol: Cellular proliferation is measured by cell count. 7,000 endothelial cells are placed in the wells of 24-well plates (Costar) in DMEM medium containing newborn bovine serum. […] Two days later, the cells area once again stimulated by VEGF in the presence or absence of different concentrations of peptide. At the fifth day, the cells are trypsinized and counted using a Coulter counter.

[5] = CHOm VEGFR2 cells, 5 ng/mL 125I-VEGF, 2 hours at 4° C.

inhibiting binding of VEGF to the KDR receptor (in words) ([1]; CHOm VEGFR2 cells)	Compound	IC50 [1] [µM]	further results
–	CC[C@H](C)[C@@H]1NC(=O)[C@H](Cc2c[nH]cn2)NC(=O)[C@H](CCC(N)=O)NC(=O)CNC(=O)[C@H](CCC(N)=O)NC(=O)[C@H](Cc2c[nH]cn2)NC(=O)[C@@H]2CCCN2C(=O)[C@H](CCCCN)NC(=O)[C@H]([C@@H](C)CC)NC(=O)[C@H](CCCNC(=N)N)NC(=O)[C@H](CCSC)NC(=O)[C@H]([C@@H](C)CC)NC(=O)[C@H](CCC(N)=O)NC(=O)CNC(=O)[C@H](CCC(=O)O)NC(=O)CNC1=O [Peptide P12] (cyclo(EGQIMRIKPHQGQHIG))	300	–
very effective	CC[C@H](C)[C@@H]1NC(=O)[C@H](CCCNC(=N)N)NC(=O)[C@@H]2CCCN2C(=O)[C@@H](Cc2ccc(O)cc2)NC(=O)[C@H](CCC(N)=O)NC(=O)[C@H](Cc2c[nH]cn2)NC(=O)[C@@H]2CCCN2C(=O)[C@H](CCCCN)NC1=O [Peptide P23] (cyclo([dY]PRIKPHQ))	–	–
–	CC[C@H](C)[C@@H]1NC(=O)[C@H](CCC(N)=O)NC(=O)[C@H](CCC(=O)O)NC(=O)[C@H](CCC(N)=O)NC(=O)[C@H](Cc2c[nH]cn2)NC(=O)[C@@H]2CCCN2C(=O)[C@H](CCCCN)NC(=O)[C@H]([C@@H](C)CC)NC(=O)[C@H](CCCNC(=N)N)NC(=O)[C@H](CCSC)NC1=O [Peptide P22, reference compound] (cyclo(EQIMRIKPHQ))	> 300	–
–	H-PQIMRIKPHQGQHIGE-OH [Peptide P14]	> 300	–
–	CC[C@H](C)[C@@H]1NC(=O)[C@H](CCCNC(=N)N)NC(=O)CNC(=O)[C@H](Cc2c[nH]cn2)NC(=O)[C@H](CCC(N)=O)NC(=O)CNC(=O)[C@H](CCC(N)=O)NC(=O)[C@H](Cc2c[nH]cn2)NC(=O)[C@H]2CCCN2C(=O)[C@H](CCCCN)NC1=O [Peptide P7, cyclo(Gly-Arg-Ile-Lys-DPro-His-Gln-Gly-Gln-His)] (cyclo(GQHGRIK[dP]HQ))	> 300	–
–	CC[C@H](C)[C@@H]1NC(=O)[C@H](CCCNC(=N)N)NC(=O)[C@H](CCSC)NC(=O)[C@H]([C@@H](C)CC)NC(=O)[C@@H]2CCCN2C(=O)[C@@H](Cc2ccccc2)NC(=O)[C@H]([C@@H](C)CC)NC(=O)[C@H](Cc2c[nH]cn2)NC(=O)[C@H](CCC(N)=O)NC(=O)CNC(=O)[C@H](CCC(N)=O)NC(=O)[C@H](Cc2c[nH]cn2)NC(=O)[C@@H]2CCCN2C(=O)[C@H](CCCCN)NC1=O [Peptide P21] (cyclo(GQHI[dF]PIMRIKPHQ))	200	–
–	C=CCOC(=O)[C@H](CCC(=O)O)NC(=O)CNC(=O)[C@@H](NC(=O)[C@H](Cc1c[nH]cn1)NC(=O)[C@H](CCC(N)=O)NC(=O)CNC(=O)[C@H](CCC(N)=O)NC(=O)[C@H](Cc1c[nH]cn1)NC(=O)[C@@H]1CCCN1C(=O)[C@H](CCCCN)NC(=O)[C@@H](NC(=O)[C@H](CCCNC(=N)N)NC(=O)[C@H](CCSC)NC(=O)[C@@H](NC(=O)[C@@H](N)CCC(N)=O)[C@@H](C)CC)[C@@H](C)CC)[C@@H](C)CC [Peptide P10] (H-QIMRIKPHQGQHIGE-OAll)	> 300	–
very effective	CC[C@H](C)[C@@H]1NC(=O)[C@H](Cc2c[nH]cn2)NC(=O)[C@H](CCC(N)=O)NC(=O)CNC(=O)[C@H](CCC(N)=O)NC(=O)[C@H](Cc2c[nH]cn2)NC(=O)[C@@H]2CCCN2C(=O)[C@H](CCCCN)NC(=O)[C@H]([C@@H](C)CC)NC(=O)[C@H](CCCNC(=N)N)NC(=O)[C@H](CCSC)NC(=O)[C@H]([C@@H](C)CC)NC(=O)[C@H](CCC(N)=O)NC(=O)[C@H](CCC(=O)O)NC(=O)CNC1=O [Peptide P19] (cyclo(QIMRIKPHQGQHIGE))	–	–
–	H-RIKPH-OH [Peptide P1, H-Arg-Ile-Lys-Pro-His-OH]	–	IC50 [1, 5]: > 300 µM
very effective	CC[C@H](C)[C@@H]1NC(=O)[C@H](Cc2c[nH]cn2)NC(=O)[C@H](CCC(N)=O)NC(=O)CNC(=O)[C@H](CCC(N)=O)NC(=O)[C@H](Cc2c[nH]cn2)NC(=O)[C@@H]2CCCN2C(=O)[C@H](CCCCN)NC(=O)[C@H]([C@@H](C)CC)NC(=O)[C@H](CCCNC(=N)N)NC(=O)[C@H](CCSC)NC(=O)[C@H]([C@@H](C)CC)NC(=O)[C@H](CCC(N)=O)NC(=O)[C@@H]2CCCN2C(=O)[C@@H](Cc2ccccc2)NC(=O)[C@H](CCC(=O)O)NC(=O)CNC1=O [Peptide P11] (cyclo([dF]PQIMRIKPHQGQHIGE))	–	inhibition of cellular migration (in words) [2]: strongly inhibits; inhibition of phosphorylation of p42/p44 (in words) [3]: strongly inhibits; inhibition of cellular proliferation (in words) [4]: strong inhibition
–	H-QIMRIKPHQGQHIGE-OH [Peptide P4]	> 300	–
–	CC[C@H](C)[C@@H]1NC(=O)[C@H](Cc2c[nH]cn2)NC(=O)[C@H](CCC(N)=O)NC(=O)CNC(=O)[C@H](CCC(N)=O)NC(=O)[C@H](Cc2c[nH]cn2)NC(=O)[C@@H]2CCCN2C(=O)[C@H](CCCCN)NC(=O)[C@H]([C@@H](C)CC)NC(=O)[C@H](CCCNC(=N)N)NC(=O)[C@H](CCSC)NC(=O)[C@H]([C@@H](C)CC)NC(=O)[C@H](CCC(N)=O)NC(=O)[C@@H]2CCCN2C(=O)[C@H](CCC(=O)O)NC(=O)CNC1=O [Peptide P13] (cyclo(EPQIMRIKPHQGQHIG))	> 300	–
–	CC[C@H](C)[C@@H]1NC(=O)[C@H](CCCNC(=N)N)NC(=O)CNC(=O)[C@H](Cc2c[nH]cn2)NC(=O)CNC(=O)[C@H](CCC(N)=O)NC(=O)[C@H](Cc2c[nH]cn2)NC(=O)[C@@H]2CCCN2C(=O)[C@H](CCCCN)NC1=O [Peptide P8] (cyclo(GRIKPHQGH))	–	IC50 [1, 5]: 200 µM
–	CC[C@H](C)[C@H](NC(=O)[C@H](CCCNC(=N)N)NC(=O)CN)C(=O)N[C@@H](CCCCN)C(=O)N1CCC[C@@H]1C(=O)N[C@@H](Cc1c[nH]cn1)C(=O)N[C@@H](CCC(N)=O)C(=O)NCC(=O)N[C@@H](CCC(N)=O)C(=O)N[C@@H](Cc1c[nH]cn1)C(=O)O [Peptide P6, H-Gly-Arg-Ile-Lys-DPro-His-Gln-Gly-Gln-His-OH] (H-GRIK[dP]HQGQH-OH)	> 300	–
very effective	CC[C@H](C)[C@@H]1NC(=O)[C@H](CCCNC(=N)N)NC(=O)CNC(=O)[C@H](Cc2c[nH]cn2)NC(=O)[C@@H]2CCCN2C(=O)[C@H](CCCCN)NC1=O [Peptide P24, cyclo(Gly-Arg-Ile-Lys-Pro-His)] (cyclo(GRIKPH))	–	IC50 [1, 5]: 8 µM
–	H-RIKPHQG-OH [Peptide P3, H-Arg-Ile-Lys-Pro-His-Gln-Gly-OH]	> 300	–
–	H-QIMRIKPH-OH [Peptide P2]	> 300	–
very effective	CC[C@H](C)[C@@H]1NC(=O)[C@H](CCCNC(=N)N)NC(=O)CNC(=O)[C@H](CCC(N)=O)NC(=O)[C@H](Cc2c[nH]cn2)NC(=O)[C@@H]2CCCN2C(=O)[C@H](CCCCN)NC1=O [Peptide P16, cyclo(Arg-Ile-Lys-Pro-His-Gln-Gly)] (cyclo(RIKPHQG))	–	–
–	CC[C@H](C)[C@@H]1NC(=O)[C@H](CCCNC(=N)N)NC(=O)[C@@H]2CCCN2C(=O)[C@H](Cc2c[nH]cn2)NC(=O)[C@H](CCC(N)=O)NC(=O)CNC(=O)[C@H](CCC(N)=O)NC(=O)[C@H](Cc2c[nH]cn2)NC(=O)[C@@H]2CCCN2C(=O)[C@H](CCCCN)NC1=O [Peptide P9] (cyclo(GQHPRIKPHQ))	300	–
–	H-GQIMRIKPHQGQHIGE-OH [Peptide P15]	> 300	–
–	H-QIMRIKPHQGQHIG-OH [Peptide P5]	> 300	–

Compound	inhibiting binding of VEGF to the KDR receptor (in words) ([1]; CHOm VEGFR2 cells)	IC50 [1] [µM]	further results
CC[C@H](C)[C@@H]1NC(=O)[C@H](CCCNC(=N)N)NC(=O)[C@@H]2CCCN2C(=O)CNC(=O)[C@H](CCC(N)=O)NC(=O)[C@H](Cc2c[nH]cn2)NC(=O)[C@@H]2CCCN2C(=O)[C@H](CCCCN)NC1=O [Peptide P17] (cyclo(PRIKPHQG))	very effective	10	–
CC[C@H](C)[C@@H]1NC(=O)[C@H](Cc2c[nH]cn2)NC(=O)[C@H](CCC(N)=O)NC(=O)CNC(=O)[C@H](CCC(N)=O)NC(=O)[C@H](Cc2c[nH]cn2)NC(=O)[C@@H]2CCCN2C(=O)[C@H](CCCCN)NC(=O)[C@H]([C@@H](C)CC)NC(=O)[C@H](CCCNC(=N)N)NC(=O)[C@H](CCSC)NC(=O)[C@H]([C@@H](C)CC)NC(=O)[C@H](CCC(N)=O)NC(=O)[C@@H]2CCCN2C(=O)[C@@H](Cc2ccccc2)NC(=O)CNC1=O [Peptide P20] (cyclo([dF]PQIMRIKPHQGQHIG))	very effective	10	–

— patent US7199100B2, “Cyclic peptides, method for preparing and use as angiogenesis inhibitors or activator” (Commissariat a l'Energie Atomique, priority 2000, dated 2007)
